Data as given in patent US20200383961A1, “TRIPLET THERAPIES OF HDAC INHIBITORS, PD-L1 AND/OR PD-1 INHIBITORS, AND CTLA-4 INHIBITORS” (HUYA Bioscience International, LLC, priority 2019, published 2020).
Read-outs that look alike come from different tables or passages of the source.

Experiments:
[1] = system: RR/PTCL; details: historical benchmark, cited from earlier work
[2] = system: relapsed or refractory peripheral T-cell lymphoma (RR/PTCL); test: Phase 2 monotherapy in relapsed or refractory peripheral T-cell lymphoma; assay type: in vivo, human
Procedure: The compounds of formula I were used as a monotherapy for relapsed or refractory peripheral T-cell lymphoma (“RR/PTCL”). A dosage of 40 mg biw was approved for this study. A summary of the results is found in Table 10. […] The time after prior treatment was 96 days (vs. 222 days for romidepsin P2 trial). […] The median PFS (months) was 7.6.

[3] = system: tumor micro-environment (TME); details: cited from earlier work
[4] = system: relapsed or refractory aggressive adult T-cell lymphoma (RR/ATL); test: Phase 2 monotherapy in relapsed or refractory aggressive adult T-cell lymphoma; assay type: in vivo, human; details: 20 evaluable, 40 mg biw monotherapy
Procedure: (§1) The compounds of formula I were used as a monotherapy for relapsed or refractory aggressive adult T-cell lymphoma (“RR/ATL”). A dosage of 40 mg biw was approved for this study. A summary of the results is found in Table 12. […] The time after prior treatment was 88 days (vs. 234 days for lenalidomide P2 trial). All patients had received mogamulizumab (“moga”) (lenalidomide ORR in moga patients was 18%).

[5] = Tolerability of compounds of formula I, nivolumab and their combination (adverse events); assay type: in vivo, human; details: for TRAE Anemia G1-2 / TRAE Anemia G3 / TRAE Anemia G4 / TRAE Diarrhea G1-2 / TRAE Diarrhea G3 / TRAE Diarrhea G4 / TRAE Fatigue G1-2 / TRAE Fatigue G3 / TRAE Fatigue G4 / TRAE Hypophospatemia G1-2 / TRAE Hypophospatemia G3 / TRAE Hypophospatemia G4 / TRAE Lymphocyte decrease G1-2 / TRAE Lymphocyte decrease G3 / TRAE Lymphocyte decrease G4 / TRAE Neutrophil decrease G1-2 / TRAE Neutrophil decrease G3 / TRAE Neutrophil decrease G4 / TRAE Platelet decrease G1-2 / TRAE Platelet decrease G3 / TRAE Platelet decrease G4 / TRAE WBC decrease G1-2 / TRAE WBC decrease G3 / TRAE WBC decrease G4: TRAE >= 5% frequency, by association
Procedure: The tolerability of the compounds of formula I, nivolumab, and a combination of the compounds of formula I and nivolumab were tested. The Phase 2 clinical dosage of 30 mg BIW of the compounds of formula I was administered.

[6] = system: RR/ATL; test: Historical benchmarks for RR/ATL treatments; assay type: in vivo, human; details: Phase I, listed among benchmarks
Procedure: as §1

[7] = system: RR/ATL; details: cited from earlier work; for ORR: historical benchmark, RR/ATL
[8] = 43 evaluable, 40 mg biw monotherapy
[9] = number of patients, 43 evaluable, 40 mg biw monotherapy
[10] = less frequent TRAEs associated with NIVO alone

Nc1cc(F)ccc1NC(=O)c1ccc(CNC(=O)/C=C/c2cccnc2)cc1 [Epidaza]
ORR (PMS) ([1]; value in brackets, PMS): 35% | ORR [1]: 28%

O=c1[nH]cnc2c([C@@H]3N[C@H](CO)[C@@H](O)[C@H]3O)c[nH]c12 [Forodesine]
ORR [1]: 22%

Nc1cc(F)ccc1NC(=O)c1ccc(CNC(=O)/C=C/c2cccnc2)cc1 [HBI-8000, N-(2-amino-4-fluorophenyl)-4-[[[(2E)-1-oxo-3-(3-pyridinyl)-2-propen-1-yl]amino]methyl]benzamide]
DCR [2, 8]: 74% | ORR [2, 8]: 46% | median PFS ([2]; estimated, PD date by investigator judgement, FIG. 7A): 7.6 months | Complete Responses [2, 9]: 4 | Partial Responses [2, 9]: 16 | Stable Disease [2, 9]: 12 | PD-1 and PD-L1 expression ([3]; "cold" tumors): increases | apoptosis scores and signatures ([3]; tumor cells): increasing | conversion of M2 (suppressive) to M1 (antitumor) macrophages ([3]; tumor micro-environment): promotes | influx of CD8+ T cells and NK cells ([3]; tumor micro-environment): increases | number and activity of regulatory T cells (TREGs), myeloid-derived suppressor cells (MDSCs) ([3]; tumor micro-environment): reduces | ratio of active CD8+ effector T cells to "exhausted" CD8 T cells ([3]; tumor micro-environment): increases | DCR [4]: 60% | ORR [4]: 40% | Stable Disease ([4]; number of patients): 4 | Partial Responses ([4]; number of patients, all had received mogamulizumab): 8 | TRAE Anemia G1-2 [5]: 14 (22) n (% of N) | TRAE Anemia G3 [5]: 1 (2) n (% of N) | TRAE Anemia G4 [5]: 0 n (% of N) | TRAE Diarrhea G1-2 [5]: 0 n (% of N) | TRAE Diarrhea G3 [5]: 0 n (% of N) | TRAE Diarrhea G4 [5]: 0 n (% of N) | TRAE Fatigue G1-2 [5]: 0 n (% of N) | TRAE Fatigue G3 [5]: 0 n (% of N) | TRAE Fatigue G4 [5]: 0 n (% of N) | TRAE Hypophospatemia G1-2 [5]: 6 (10) n (% of N) | TRAE Hypophospatemia G3 [5]: 4 (6) n (% of N) | TRAE Hypophospatemia G4 [5]: 0 n (% of N) | TRAE Lymphocyte decrease G1-2 [5]: 0 n (% of N) | TRAE Lymphocyte decrease G3 [5]: 0 n (% of N) | TRAE Lymphocyte decrease G4 [5]: 0 n (% of N) | TRAE Neutrophil decrease G1-2 [5]: 8 (13) n (% of N) | TRAE Neutrophil decrease G3 [5]: 5 (8) n (% of N) | TRAE Neutrophil decrease G4 [5]: 1 (2) n (% of N) | TRAE Platelet decrease G1-2 [5]: 23 (37) n (% of N) | TRAE Platelet decrease G3 [5]: 3 (5) n (% of N) | TRAE Platelet decrease G4 [5]: 0 n (% of N) | TRAE WBC decrease G1-2 [5]: 11 (17) n (% of N) | TRAE WBC decrease G3 [5]: 1 (2) n (% of N) | TRAE WBC decrease G4 [5]: 0 n (% of N) | share of TRAEs associated with the agent ([5]; among TRAEs, 63 subjects): 39% | ORR [6]: 75%

Nc1cccc2c1CN(C1CCC(=O)NC1=O)C2=O (centres unmarked) [Lenalidomide]
ORR [7]: 42% | ORR in moga patients ([7]; patients who had received mogamulizumab, lenalidomide P2 trial): 18%

C#CCC(Cc1cnc2nc(N)nc(N)c2n1)c1ccc(C(=O)N[C@@H](CCC(=O)O)C(=O)O)cc1 (some centres unmarked) [Pralatrexate]
ORR [1]: 45%

NIVO: fully human monoclonal antibody directed against PD-1
TRAE Anemia G1-2 [5]: 0 n (% of N) | TRAE Anemia G3 [5]: 0 n (% of N) | TRAE Anemia G4 [5]: 0 n (% of N) | TRAE Diarrhea G1-2 [5]: 4 (6) n (% of N) | TRAE Diarrhea G3 [5]: 1 (2) n (% of N) | TRAE Diarrhea G4 [5]: 0 n (% of N) | TRAE Fatigue G1-2 [5]: 0 n (% of N) | TRAE Fatigue G3 [5]: 0 n (% of N) | TRAE Fatigue G4 [5]: 0 n (% of N) | TRAE Hypophospatemia G1-2 [5]: 0 n (% of N) | TRAE Hypophospatemia G3 [5]: 0 n (% of N) | TRAE Hypophospatemia G4 [5]: 0 n (% of N) | TRAE Lymphocyte decrease G1-2 [5]: 0 n (% of N) | TRAE Lymphocyte decrease G3 [5]: 0 n (% of N) | TRAE Lymphocyte decrease G4 [5]: 0 n (% of N) | TRAE Neutrophil decrease G1-2 [5]: 0 n (% of N) | TRAE Neutrophil decrease G3 [5]: 0 n (% of N) | TRAE Neutrophil decrease G4 [5]: 0 n (% of N) | TRAE Platelet decrease G1-2 [5]: 0 n (% of N) | TRAE Platelet decrease G3 [5]: 0 n (% of N) | TRAE Platelet decrease G4 [5]: 0 n (% of N) | TRAE WBC decrease G1-2 [5]: 0 n (% of N) | TRAE WBC decrease G3 [5]: 0 n (% of N) | TRAE WBC decrease G4 [5]: 0 n (% of N) | TRAE TSH increase [5, 10]: 5 n | TRAE amylase increase [5, 10]: 4 n | TRAE lipase increase [5, 10]: 6 n | TRAE rash [5, 10]: 10 n

B1: Mogamulizumab: RR/ATL treatment, historical benchmark (antibody, chains of the INN, looked up, V domains shown)
VH: EVQLVESGGDLVQPGRSLRLSCAASGFIFSNYGMSWVRQAPGKGLEWVATISSASTYSYYPDSVKGRFTISRDNAKNSLYLQMNSLRVEDTALYYCGRHSDGNFAFGYWGQGTLVTVSS
VL: DVLMTQSPLSLPVTPGEPASISCRSSRNIVHINGDTYLEWYLQKPGQSPQLLIYKVSNRFSGVPDRFSGSGSGTDFTLKISRVEAEDVGVYYCFQGSLLPWTFGQGTKVEIK
ORR [7]: 50%
